Assay results reported in ChEMBL document CHEMBL4507281, “Data for DCP probe BI-4394” (2021).

Experiments:
[1] = target: Serine/threonine-protein kinase pim-3 (Homo sapiens) (UniProt Q86V86); conditions: Compound concentration 100.0 nM
[2] = target: Rhodopsin kinase GRK7 (Homo sapiens) (UniProt Q8WTQ7); conditions: Compound concentration 100.0 nM
[3] = target: Glycogen synthase kinase-3 beta (Homo sapiens) (UniProt P49841); conditions: Compound concentration 100.0 nM
[4] = target: Fibroblast growth factor receptor 1 (Homo sapiens) (UniProt P11362); conditions: Compound concentration 100.0 nM
[5] = target: Ribosomal protein S6 kinase alpha-3 (Homo sapiens) (UniProt P51812); conditions: Compound concentration 100.0 nM
[6] = target: Mu-type opioid receptor (Homo sapiens) (UniProt P35372); conditions: Compound concentration 10.0 uM
[7] = system: Phosphatidylinositol 4,5-bisphosphate 3-kinase catalytic subunit alpha isoform (Homo sapiens), P42336 [E545A]; conditions: Compound concentration 100.0 nM
[8] = target: Dual specificity mitogen-activated protein kinase kinase 6 (Homo sapiens) (UniProt P52564); conditions: Compound concentration 100.0 nM
[9] = target: Non-receptor tyrosine-protein kinase TYK2 (Homo sapiens) (UniProt P29597); conditions: Compound concentration 100.0 nM
[10] = target: T1, Tyrosine-protein kinase ZAP-70 (Homo sapiens) (UniProt P43403); conditions: Compound concentration 100.0 nM
T1 sequence (whole entry): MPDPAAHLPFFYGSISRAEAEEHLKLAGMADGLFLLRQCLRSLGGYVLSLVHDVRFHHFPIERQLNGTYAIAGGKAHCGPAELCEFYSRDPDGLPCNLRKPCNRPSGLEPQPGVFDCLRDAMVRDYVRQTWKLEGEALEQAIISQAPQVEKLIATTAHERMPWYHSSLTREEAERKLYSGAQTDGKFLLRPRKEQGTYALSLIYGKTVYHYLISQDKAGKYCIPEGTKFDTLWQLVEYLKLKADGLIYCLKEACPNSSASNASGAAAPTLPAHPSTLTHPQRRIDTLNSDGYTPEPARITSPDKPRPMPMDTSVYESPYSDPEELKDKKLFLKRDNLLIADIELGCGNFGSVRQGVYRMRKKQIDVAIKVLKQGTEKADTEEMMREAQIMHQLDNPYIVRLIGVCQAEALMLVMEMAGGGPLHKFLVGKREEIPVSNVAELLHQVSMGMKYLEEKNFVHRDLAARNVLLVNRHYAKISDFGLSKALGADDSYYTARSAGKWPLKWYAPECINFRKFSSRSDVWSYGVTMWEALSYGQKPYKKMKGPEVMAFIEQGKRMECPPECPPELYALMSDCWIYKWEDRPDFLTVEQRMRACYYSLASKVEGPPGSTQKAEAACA

[11] = target: RAF proto-oncogene serine/threonine-protein kinase (Homo sapiens) (UniProt P04049); conditions: Compound concentration 100.0 nM
[12] = system: Epidermal growth factor receptor (Homo sapiens), P00533 [G719S]; conditions: Compound concentration 100.0 nM
[13] = target: Tyrosine-protein kinase HCK (Homo sapiens) (UniProt P08631); conditions: Compound concentration 100.0 nM
[14] = target: Transient receptor potential cation channel subfamily M member 6 (Homo sapiens) (UniProt Q9BX84); conditions: Compound concentration 100.0 nM
[15] = target: High affinity nerve growth factor receptor (Homo sapiens) (UniProt P04629); conditions: Compound concentration 100.0 nM
[16] = target: Ephrin type-B receptor 3 (Homo sapiens) (UniProt P54753); conditions: Compound concentration 100.0 nM
[17] = target: Calcium-dependent protein kinase 1 (Plasmodium falciparum) (UniProt P62344); conditions: Compound concentration 100.0 nM
[18] = target: Serine/threonine-protein kinase 17A (Homo sapiens) (UniProt Q9UEE5); conditions: Compound concentration 100.0 nM
[19] = target: Serine/threonine-protein kinase PAK 4 (Homo sapiens) (UniProt O96013); conditions: Compound concentration 100.0 nM
[20] = target: Ribosomal protein S6 kinase alpha-1 (Homo sapiens) (UniProt Q15418); conditions: Compound concentration 100.0 nM
[21] = target: Serine/threonine-protein kinase D3 (Homo sapiens) (UniProt O94806); conditions: Compound concentration 100.0 nM
[22] = target: Serine/threonine-protein kinase haspin (Homo sapiens) (UniProt Q8TF76); conditions: Compound concentration 100.0 nM
[23] = target: Serine/threonine-protein kinase ICK (Homo sapiens) (UniProt Q9UPZ9); conditions: Compound concentration 100.0 nM
[24] = target: Serine/threonine-protein kinase D2 (Homo sapiens) (UniProt Q9BZL6); conditions: Compound concentration 100.0 nM
[25] = system: Phosphatidylinositol 4,5-bisphosphate 3-kinase catalytic subunit alpha isoform (Homo sapiens), P42336 [E545K]; conditions: Compound concentration 100.0 nM
[26] = target: Serine/threonine-protein kinase WNK1 (Homo sapiens) (UniProt Q9H4A3); conditions: Compound concentration 100.0 nM
[27] = target: Tyrosine-protein kinase ABL1 (Homo sapiens) (UniProt P00519); conditions: Compound concentration 100.0 nM
[28] = system: Hepatocyte growth factor receptor (Homo sapiens), P08581 [Y1235D]; conditions: Compound concentration 100.0 nM
[29] = target: G protein-coupled receptor kinase 3 (Homo sapiens) (UniProt P35626); conditions: Compound concentration 100.0 nM
[30] = target: Phosphatidylinositol 4,5-bisphosphate 3-kinase catalytic subunit beta isoform (Homo sapiens) (UniProt P42338); conditions: Compound concentration 100.0 nM
[31] = target: Tyrosine-protein kinase ITK/TSK (Homo sapiens) (UniProt Q08881); conditions: Compound concentration 100.0 nM
[32] = target: Fibroblast growth factor receptor 3 (Homo sapiens) (UniProt P22607); conditions: Compound concentration 100.0 nM
[33] = target: Protein kinase C theta type (Homo sapiens) (UniProt Q04759); conditions: Compound concentration 100.0 nM
[34] = target: Serine/threonine-protein kinase MRCK beta (Homo sapiens) (UniProt Q9Y5S2); conditions: Compound concentration 100.0 nM
[35] = target: Vascular endothelial growth factor receptor 1 (Homo sapiens) (UniProt P17948); conditions: Compound concentration 100.0 nM
[36] = system: Tyrosine-protein kinase ABL1 (Homo sapiens), P00519 [H396P]; conditions: Compound concentration 100.0 nM
[37] = target: Calcium/calmodulin-dependent protein kinase type II subunit gamma (Homo sapiens) (UniProt Q13555); conditions: Compound concentration 100.0 nM
Sequence of Calcium/calmodulin-dependent protein kinase type II subunit gamma (Homo sapiens) (Q13555 whole entry): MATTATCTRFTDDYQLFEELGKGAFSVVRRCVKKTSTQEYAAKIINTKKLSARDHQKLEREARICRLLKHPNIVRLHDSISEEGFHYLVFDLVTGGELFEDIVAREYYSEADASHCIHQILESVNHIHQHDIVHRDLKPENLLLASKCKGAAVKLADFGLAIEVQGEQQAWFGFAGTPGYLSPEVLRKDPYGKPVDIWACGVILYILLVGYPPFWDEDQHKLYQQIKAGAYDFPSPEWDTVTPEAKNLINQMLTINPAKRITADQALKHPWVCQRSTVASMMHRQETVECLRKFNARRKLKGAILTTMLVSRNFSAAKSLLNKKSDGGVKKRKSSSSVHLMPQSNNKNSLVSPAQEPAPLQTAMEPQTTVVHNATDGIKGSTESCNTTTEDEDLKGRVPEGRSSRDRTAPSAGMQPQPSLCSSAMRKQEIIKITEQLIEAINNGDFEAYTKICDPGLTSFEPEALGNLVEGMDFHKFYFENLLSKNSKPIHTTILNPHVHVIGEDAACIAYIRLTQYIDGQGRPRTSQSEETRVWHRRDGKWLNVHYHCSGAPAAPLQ

Sequence of Rhodopsin kinase GRK7 (Homo sapiens) (Q8WTQ7 whole entry): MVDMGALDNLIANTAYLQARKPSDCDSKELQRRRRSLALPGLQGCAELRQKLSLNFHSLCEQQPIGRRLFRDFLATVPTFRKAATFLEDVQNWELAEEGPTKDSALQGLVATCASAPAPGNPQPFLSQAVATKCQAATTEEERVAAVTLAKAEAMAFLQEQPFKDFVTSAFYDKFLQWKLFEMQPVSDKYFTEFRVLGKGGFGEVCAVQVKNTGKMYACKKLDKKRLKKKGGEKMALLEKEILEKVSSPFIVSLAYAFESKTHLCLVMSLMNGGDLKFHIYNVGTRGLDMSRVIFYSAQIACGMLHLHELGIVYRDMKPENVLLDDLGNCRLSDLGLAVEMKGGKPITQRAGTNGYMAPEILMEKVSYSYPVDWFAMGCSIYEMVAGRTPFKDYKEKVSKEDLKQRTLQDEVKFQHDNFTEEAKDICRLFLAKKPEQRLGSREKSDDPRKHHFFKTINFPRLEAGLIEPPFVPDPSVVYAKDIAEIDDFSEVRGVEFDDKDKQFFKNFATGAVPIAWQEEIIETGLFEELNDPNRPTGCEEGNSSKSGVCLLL
Sequence of Serine/threonine-protein kinase ICK (Homo sapiens) (Q9UPZ9 whole entry): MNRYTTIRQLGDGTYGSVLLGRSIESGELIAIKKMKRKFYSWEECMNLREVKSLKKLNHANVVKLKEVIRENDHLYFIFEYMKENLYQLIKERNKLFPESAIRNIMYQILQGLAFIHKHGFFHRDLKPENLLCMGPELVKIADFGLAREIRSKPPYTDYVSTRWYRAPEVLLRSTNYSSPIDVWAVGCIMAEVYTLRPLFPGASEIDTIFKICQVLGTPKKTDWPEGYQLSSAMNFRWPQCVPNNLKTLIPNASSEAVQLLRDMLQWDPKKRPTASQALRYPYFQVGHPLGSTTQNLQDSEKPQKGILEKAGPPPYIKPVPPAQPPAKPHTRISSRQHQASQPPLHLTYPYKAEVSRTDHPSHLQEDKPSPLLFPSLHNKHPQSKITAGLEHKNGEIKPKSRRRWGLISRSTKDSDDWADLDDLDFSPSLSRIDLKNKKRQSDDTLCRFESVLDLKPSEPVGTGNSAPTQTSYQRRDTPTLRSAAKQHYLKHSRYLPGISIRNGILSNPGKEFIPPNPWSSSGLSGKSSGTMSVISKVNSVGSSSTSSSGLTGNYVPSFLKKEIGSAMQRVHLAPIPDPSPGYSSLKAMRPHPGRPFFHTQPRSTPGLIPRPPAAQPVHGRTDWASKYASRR
Sequence of Serine/threonine-protein kinase D2 (Homo sapiens) (Q9BZL6 whole entry, canonical isoform): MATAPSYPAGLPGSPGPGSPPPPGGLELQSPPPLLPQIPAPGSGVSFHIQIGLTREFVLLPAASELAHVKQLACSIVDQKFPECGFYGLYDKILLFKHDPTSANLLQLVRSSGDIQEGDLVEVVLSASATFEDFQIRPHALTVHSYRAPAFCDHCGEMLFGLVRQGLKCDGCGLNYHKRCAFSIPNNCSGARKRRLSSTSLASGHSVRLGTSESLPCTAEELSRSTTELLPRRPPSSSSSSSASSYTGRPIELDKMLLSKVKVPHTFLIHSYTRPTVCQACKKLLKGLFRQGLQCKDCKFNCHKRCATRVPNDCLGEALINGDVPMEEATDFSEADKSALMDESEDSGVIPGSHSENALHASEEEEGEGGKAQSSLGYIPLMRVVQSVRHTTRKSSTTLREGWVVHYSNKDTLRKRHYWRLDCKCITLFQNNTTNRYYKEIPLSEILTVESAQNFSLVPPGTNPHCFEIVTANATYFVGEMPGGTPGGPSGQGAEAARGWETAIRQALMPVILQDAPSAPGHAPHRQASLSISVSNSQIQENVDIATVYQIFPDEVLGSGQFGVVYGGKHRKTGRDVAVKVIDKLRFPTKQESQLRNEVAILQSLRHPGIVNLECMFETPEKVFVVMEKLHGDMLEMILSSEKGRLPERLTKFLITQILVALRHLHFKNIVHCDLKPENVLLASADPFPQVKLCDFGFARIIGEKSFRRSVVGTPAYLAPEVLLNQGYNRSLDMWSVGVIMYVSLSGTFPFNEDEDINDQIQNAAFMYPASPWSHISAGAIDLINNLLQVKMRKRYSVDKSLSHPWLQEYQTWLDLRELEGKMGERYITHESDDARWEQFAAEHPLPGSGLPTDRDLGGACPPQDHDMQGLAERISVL
Sequence of Calcium-dependent protein kinase 1 (Plasmodium falciparum) (P62344 2-524 limits assumed): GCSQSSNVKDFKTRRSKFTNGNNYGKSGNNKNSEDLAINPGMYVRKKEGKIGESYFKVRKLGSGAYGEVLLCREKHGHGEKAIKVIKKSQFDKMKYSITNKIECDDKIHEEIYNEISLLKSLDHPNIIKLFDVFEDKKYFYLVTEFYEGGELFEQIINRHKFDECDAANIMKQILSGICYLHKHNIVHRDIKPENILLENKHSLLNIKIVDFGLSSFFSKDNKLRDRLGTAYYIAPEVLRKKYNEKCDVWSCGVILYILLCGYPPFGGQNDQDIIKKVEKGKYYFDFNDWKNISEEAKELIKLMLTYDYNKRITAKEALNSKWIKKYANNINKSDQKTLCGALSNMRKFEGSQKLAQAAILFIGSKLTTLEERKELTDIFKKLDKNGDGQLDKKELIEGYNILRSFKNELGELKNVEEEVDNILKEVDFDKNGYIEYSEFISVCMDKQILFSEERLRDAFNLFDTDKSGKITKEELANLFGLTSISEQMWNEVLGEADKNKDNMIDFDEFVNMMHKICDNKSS
Sequence of High affinity nerve growth factor receptor (Homo sapiens) (P04629 33-796 limits assumed): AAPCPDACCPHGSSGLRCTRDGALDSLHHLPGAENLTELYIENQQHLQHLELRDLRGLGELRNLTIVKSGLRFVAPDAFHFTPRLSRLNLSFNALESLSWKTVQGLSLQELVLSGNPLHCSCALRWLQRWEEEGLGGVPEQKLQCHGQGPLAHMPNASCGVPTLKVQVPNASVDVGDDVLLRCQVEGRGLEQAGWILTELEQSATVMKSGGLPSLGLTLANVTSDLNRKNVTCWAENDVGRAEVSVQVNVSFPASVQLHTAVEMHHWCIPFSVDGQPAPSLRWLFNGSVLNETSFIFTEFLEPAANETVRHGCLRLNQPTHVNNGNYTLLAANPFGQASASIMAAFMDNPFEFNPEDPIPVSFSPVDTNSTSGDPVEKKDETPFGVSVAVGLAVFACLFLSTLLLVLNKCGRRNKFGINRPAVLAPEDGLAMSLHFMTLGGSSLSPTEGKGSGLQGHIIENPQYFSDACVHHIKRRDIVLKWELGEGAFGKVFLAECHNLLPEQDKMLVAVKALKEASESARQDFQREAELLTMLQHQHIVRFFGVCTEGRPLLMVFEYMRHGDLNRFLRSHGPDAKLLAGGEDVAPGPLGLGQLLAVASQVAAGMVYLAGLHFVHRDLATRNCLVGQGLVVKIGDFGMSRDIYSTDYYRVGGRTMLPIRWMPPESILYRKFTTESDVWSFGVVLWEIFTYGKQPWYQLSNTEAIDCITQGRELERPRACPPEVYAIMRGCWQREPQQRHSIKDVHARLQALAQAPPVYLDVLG
Sequence of Protein kinase C theta type (Homo sapiens) (Q04759 whole entry, looked up): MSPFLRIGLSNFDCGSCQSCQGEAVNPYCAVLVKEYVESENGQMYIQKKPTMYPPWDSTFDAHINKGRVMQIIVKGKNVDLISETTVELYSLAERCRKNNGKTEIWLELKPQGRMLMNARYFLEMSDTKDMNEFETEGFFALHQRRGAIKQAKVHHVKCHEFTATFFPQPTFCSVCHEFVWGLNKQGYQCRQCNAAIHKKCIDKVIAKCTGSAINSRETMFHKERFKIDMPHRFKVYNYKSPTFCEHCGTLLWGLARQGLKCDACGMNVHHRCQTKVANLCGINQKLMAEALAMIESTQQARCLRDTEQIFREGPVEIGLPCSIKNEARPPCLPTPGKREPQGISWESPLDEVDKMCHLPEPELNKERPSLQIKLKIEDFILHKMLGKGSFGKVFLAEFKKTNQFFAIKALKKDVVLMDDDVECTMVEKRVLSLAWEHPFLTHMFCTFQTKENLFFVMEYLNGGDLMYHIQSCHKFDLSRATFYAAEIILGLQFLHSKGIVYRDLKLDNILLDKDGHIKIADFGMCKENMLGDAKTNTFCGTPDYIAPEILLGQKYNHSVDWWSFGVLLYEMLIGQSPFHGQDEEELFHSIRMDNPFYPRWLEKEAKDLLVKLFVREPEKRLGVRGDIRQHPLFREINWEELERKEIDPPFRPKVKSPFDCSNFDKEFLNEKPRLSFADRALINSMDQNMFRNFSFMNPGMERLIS

CCOC(=O)c1cc2cc(-c3cc(C(=O)NCc4ccc(C(=O)O)cc4)nn3C)ccc2[nH]1 [BI 4394]
inactive: residual activity [1] 99% | residual activity [2] 86% | residual activity [3] 95% | residual activity [4] 86% | residual activity [5] 80% | inhibition [6] 0.37% | residual activity [7] 84% | residual activity [8] 100% | residual activity [9] 91% | residual activity [10] 98% | residual activity [11] 100% | residual activity [12] 100% | residual activity [13] 100% | residual activity [14] 95% | residual activity [15] 89% | residual activity [16] 90% | residual activity [17] 100% | residual activity [18] 97% | residual activity [19] 100% | residual activity [20] 84% | residual activity [21] 100% | residual activity [22] 77% | residual activity [23] 85% | residual activity [24] 100% | residual activity [25] 100% | residual activity [26] 93% | residual activity [27] 81% | residual activity [28] 86% | residual activity [29] 96% | residual activity [30] 88% | residual activity [31] 100% | residual activity [32] 97% | residual activity [33] 97% | residual activity [34] 88% | residual activity [35] 97% | residual activity [36] 85% | residual activity [37] 100%

Cn1nc(C(=O)NCc2ccc(C(=O)O)cc2)cc1-c1ccc2[nH]ccc2c1 [BI 4395]
inactive: residual activity [1] 91% | residual activity [2] 100% | residual activity [3] 78% | residual activity [4] 84% | residual activity [5] 70% | inhibition [6] 2.9% | residual activity [7] 77% | residual activity [8] 100% | residual activity [9] 94% | residual activity [10] 82% | residual activity [11] 70% | residual activity [12] 66% | residual activity [13] 81% | residual activity [14] 79% | residual activity [15] 74% | residual activity [16] 100% | residual activity [17] 73% | residual activity [18] 92% | residual activity [19] 86% | residual activity [20] 95% | residual activity [21] 89% | residual activity [22] 77% | residual activity [23] 72% | residual activity [24] 100% | residual activity [25] 87% | residual activity [26] 100% | residual activity [27] 65% | residual activity [28] 100% | residual activity [29] 81% | residual activity [30] 82% | residual activity [31] 85% | residual activity [32] 93% | residual activity [33] 99% | residual activity [34] 100% | residual activity [35] 89% | residual activity [36] 84% | residual activity [37] 83%
